According to patent publication US5674730A, “Eukaryotic cells comprising a DNA sequence encoding a bacterial-viral chimeric transactivator protein” (priority 1993, dated 1997):

Columns and labels:
Format in all cases: cell-based
[1] = tested on: LAP348 lac activator protein: E. coli lacI 5'N1 (SV40 nuclear localization signal) with HSV VP16 amino acids 369-488 inserted after lacI amino acid 348; test: Transient cotransfection CAT assay with or without IPTG in the growth medium (FIG. 6); details: 10 mM IPTG in growth medium; HeLa cells cotransfected with pL1-2CAT and pHCMVLAP348
Procedure: FIG. 6 Inhibition of LAP activity by IPTG. HeLa cells were plated out two days before transfection in normal media or media containing 10 mM IPTG. Transfections contained 2 μg of either pSV2CAT or pL1-2CAT alone or with 1 μg of pHCMVLAP348. Cells transfected in IPTG were fed with media containing 10 mM IPTG 16 hours after transfection. CAT assays were preformed as described in the text. The relative activities (RA) of each extract normalized to that produced by pSV2CAT are shown below the figure.
(§1) Cells were transfected by the calcium phosphate precipitation method as previously described (Wigler et al., 1979, Proc. Natl. Acad. Sci. USA 76:1373-1376). For transient expression assays, 50-70% confluent […] of cells were incubated overnight after addition to the media of a 1 ml precipitate containing 2 μg of reporter and 1 μg of effector plasmids and carrier DNA (high molecular weight calf thymus DNA) for a total of 25 μg of DNA. The media and precipitate were removed and replaced with fresh media the next morning.
(§2) Cells were harvested 44-48 hours after transfection and CAT assays performed essentially as described (Gorman et al., 1982, Mol. Cell Biol. 2:1044-1051). Equal amounts (30-200 μg) of protein were used in each experiment. CAT activity was quantitated by thin layer chromatography and liquid scintillation counting of spots. […]

[2] = tested on: LAP267 temperature-sensitive lac activator protein: E. coli lacI 5'N1 with HSV VP16 segment inserted after lacI amino acid 267; test: CAT expression from pL14CAT as a function of IPTG concentration at 39.5° C. (FIG. 9); details: 39.5° C. (non-permissive temperature); HeLa cells cotransfected with LAP267 and pL14CAT
Procedure: FIG. 9 Reverse-regulatory effect of IPTG on transactivator activity of LAP267 at 39.5° C.
LAP267 was constructed as described for LAP348 in Section 6.1.1., supra, except that the VP16 segment was inserted at an EcoRV site after amino acid 267 in the lacI coding region (FIG. 1A).
HeLa cells were cotransfected with plasmids encoding the LAP267 or LAP348 activator protein and pL14CAT, encoding CAT reporter gene. […] This property enables the expression of genes controlled by LAP267 to be induced at 39.5° C. by addition of IPTG to the culture medium.

[3] = tested on: LAP348 lac activator protein: E. coli lacI 5'N1 with HSV VP16 amino acids 369-488 inserted after lacI amino acid 348, stably expressed; test: CAT assay in cell line stably expressing LAP348, with or without IPTG (FIG. 8); details: IPTG (10 mM per FIG. 8 legend) added to medium two days before transfection; LAPneo2b cells
Procedure: FIG. 8 Inhibition of LAP348 activity of L3 cells by IPTG. Either LTK or L3, or L3 cells grown in the presence of 10 mM IPTG (L3+i) for 48 hours before transfection, were transfected with either pSV2cat or pL1-2cat as indicated. The relative activity of the extracts normalized to that produced by SV2cat in Ltk- cells are shown below.
as §1
as §2, with “spots. Extracts that converted greater than 80% of the chloramphenicol in an assay were diluted appropriately to ensure linearity of the assay.” for “spots.”

CC(C)S[C@@H]1O[C@H](CO)[C@H](O)[C@H](O)[C@H]1O [IPTG, isopropyl β-D-thiogalactoside]
reduction of the level of activation of pL1-2CAT by LAP348 [1]: greater than 10 fold
effect of IPTG on transactivator activity of LAP267 [2]: reverse regulator
reduction of expression of pL1-2CAT in LAP348-expressing cell line [3]: greater than 30 fold
